{"source": "patent US20230025280A1", "about": "“PH RESPONSIVE COMPOSITIONS, FORMULATIONS, AND METHODS OF IMAGING A TUMOR” (ONCONANO MEDICINE, INC, priority 2019, published 2023)", "key": {"[1]": {"system": "solid cancers (HNSCC, breast cancer, esophageal cancer, or colorectal cancer)", "experiment": "Intraoperative fluorescence imaging of tumors (in vivo and back table; MFI, CNR, TBR)", "design": "species or system human", "conditions": "for In Vivo CNR / In Vivo TBR: per patient, open field cameras; for Patient tumors showing Compound 1 fluorescence intraoperatively: 0.1 to 1.2 mg/kg, 24±8 h post dose; for Tumors visualized intraoperatively by Compound 1 fluorescence / Tumors that could not be visualized intraoperatively: Phase 1 overall", "text": "During surgery, intraoperative images of Compound 1 fluorescence were obtained from the primary tumors and metastatic lymph nodes as well as the surrounding tissue which include normal noncancerous tissues using NIR camera(s). This may be in vivo and/or ex vivo imaging of resected specimens. If the surgeon considered it safe, up to a maximum of 10 study related biopsies were taken from the regions with Compound 1 fluorescence that were otherwise not suspected as tumor clinically. Feasibility to image tumors with Compound 1 using multiple NIR cameras was evaluated.\nIntraoperative images and videos of “open surgery” were obtained using either the NOVADAQ SPY Elite or the SurgVision Explorer Air. The distance of the camera to the tumor was approximately 20 cm for the Explorer Air and 30 cm for the NOVADAQ SPY, according to manual instructions. The NOVADAQ SPY camera was only able to make fluorescent videos, which could be converted to images during post-processing. The settings for raw data acquisition for this camera were fixed. For the Explorer Air, attempt was made to use the same settings (exposure time and gain) for each patient to allow direct comparison between the images obtained from both the systems, however, depending on the amount of fluorescence visible during surgery, adjustments were needed in some cases due to saturation of the camera system. In some patients, the Olympus NIR laparoscope and Da Vinci Firefly camera systems were used when no open surgery was performed. Systems were used according to the manufacturer's manual.\nFirst, pre-excision fluorescence images and/or movies of the tumor and surrounding areas were made. After surgical excision, images of the wound bed were obtained. In cases where a fluorescence region was visible in the wound bed, a biopsy was taken when feasible, and the excised specimen imaged on all sides on the back table in the operating room. If applicable, lymph nodes were imaged when possible in situ and on the back table, after which the wound bed of the lymph node dissection was imaged again.\nDesignated imaging study staff performed fluorescence imaging. The surgeon was blinded to the pre-excision imaging to avoid any bias on standard surgery, but was able to look at a second monitor for white-light images while performing the surgical procedure. The surgeon assisted in the wound bed and back table imaging. During the imaging procedure, the ambient light in the surgical theatre was switched off to prevent possible interaction with the fluorescence imaging procedure itself.\nImages were processed using Fiji (ImageJ, version 2.0.0). Images were scaled on a per-patient basis, based on the maximum and minimum fluorescent intensity per pixel.\nImmediately after excision, the whole specimen was imaged on all 6 resection planes (e.g., frontal, dorsal, lateral, medial, caudal and cranial) using both the designated intraoperative camera system as well as the LI-COR PEARL® Trilogy system within a maximum duration of 60 minutes after surgical excision of the specimen (intraoperative back table imaging). […] Specimens were inked with blue and black ink to mark resection planes.\nA macroscopic correlation between visible white light of the tumor areas and corresponding fluorescence images was made. After drawing ROIs containing macroscopic tumor and ROIs containing background, MFI of both tumor and background areas were calculated. Fluorescence ratios (CNR, TBR) were calculated on a per patient basis (3 measurements per patient) following the calculations described above."}, "[2]": {"system": "solid neoplasia", "experiment": "Tumor imaging in dogs with solid neoplasia", "assay_type": "in vivo, dog", "experimental": "Materials and methods: After evaluation and recruitment for the study, dog-patients underwent (A) pre-operation analysis to identify possible types of lesion, and (B) Compound 1 tracer was administrated at 0.5 to 2.0 mg/kg, 18-78 hours prior to surgery. During the surgery (C) intra-operative imaging was performed using a Hamamatsu PDE or custom NIR camera before and after tumor removal (or after limb amputations). Resected tissues were (D) imaged with a LI-COR Pearl Imaging station and tumor-to-normal-tissue ratios were calculated accordingly. The resected tissues were then (E) preserved for histopathology validation. Safety was assessed separately in terms of adverse effects through physical examinations, laboratory tests and the recording of adverse events from infusion through discharge from hospital.\nResults: A summary of the data from spayed or neutered dog patients that were recruited for the study is shown below (Table 16). Results from a total of seven dogs of different breeds, aged 4-12 years, body weights ranging from 20.9-59.5 kg, and with a range of tumors ware presented, including instances where more than one tumor was present. Doses studied thus far ranged from 0.5-2.0 mg/kg. […] Both acute and chronic adverse effects were monitored from the time of injection through discharge of the animals from the hospital and follow-up appointments (to remove sutures) and noted."}}, "note": "Values joined by “and” are separate entries in the source; they are usually repeats but may differ in a detail not shown here. Equal values may be shown once. “Also recorded” adds a separate entry of the source."}
{"substance": "PEO90-140-b-P(DBA60-150-r-ICG0-3-r-AMA0-3) [Compound 1]", "values": [{"measurement": "In Vivo CNR", "setting": "[1]; 0.1 mg/kg, HNSCC", "result": "2.9 and 21.5 and 3.3"}, {"measurement": "In Vivo TBR", "setting": "[1]; 0.1 mg/kg, HNSCC", "result": "1.7 (2×) and 5.7"}, {"measurement": "In Vivo CNR", "setting": "[1]; 0.5 mg/kg, BC", "result": 2.5}, {"measurement": "In Vivo TBR", "setting": "[1]; 0.5 mg/kg, BC", "result": 1.6}, {"measurement": "In Vivo CNR", "setting": "[1]; 0.5 mg/kg, HNSCC", "result": "17.3 and 29.3"}, {"measurement": "In Vivo TBR", "setting": "[1]; 0.5 mg/kg, HNSCC", "result": "3.3 and 5.0"}, {"measurement": "In Vivo CNR", "setting": "[1]; 0.8 mg/kg, BC", "result": 12.7}, {"measurement": "In Vivo TBR", "setting": "[1]; 0.8 mg/kg, BC", "result": 3.7}, {"measurement": "In Vivo CNR", "setting": "[1]; 0.8 mg/kg, HNSCC", "result": 4.1}, {"measurement": "In Vivo TBR", "setting": "[1]; 0.8 mg/kg, HNSCC", "result": 2.7}, {"measurement": "Patients for whom in vivo (intraoperative) imaging was feasible", "setting": "[1]; 1.2 mg/kg, Phase 1a and 1b, all tumor types", "result": "11 of 18 and 11 of the 18"}, {"measurement": "Patients for whom in vivo imaging was feasible", "setting": "[1]; 1.2 mg/kg, BC", "result": "3 of 5"}, {"measurement": "In Vivo CNR", "setting": "[1]; 1.2 mg/kg, BC", "result": "7.8 and 9.2 and 1.3"}, {"measurement": "In Vivo TBR", "setting": "[1]; 1.2 mg/kg, BC", "result": "3.9 and 3.4 and 1.2"}, {"measurement": "Patients for whom in vivo imaging was feasible", "setting": "[1]; 1.2 mg/kg, CRC", "result": "1 of 3"}, {"measurement": "In Vivo CNR", "setting": "[1]; 1.2 mg/kg, CRC", "result": 7.4}, {"measurement": "In Vivo TBR", "setting": "[1]; 1.2 mg/kg, CRC", "result": 2.4}, {"measurement": "Patients for whom in vivo imaging was feasible", "setting": "[1]; 1.2 mg/kg, EC", "result": "0 of 3"}, {"measurement": "Patients for whom in vivo imaging was feasible", "setting": "[1]; 1.2 mg/kg, HNSCC", "result": "7 of 7"}, {"measurement": "In Vivo CNR", "setting": "[1]; 1.2 mg/kg, HNSCC", "result": "28.7 and 5.8 and 20.8 and 29.9 and 3.4 and 2.8 and 3.5"}, {"measurement": "In Vivo TBR", "setting": "[1]; 1.2 mg/kg, HNSCC", "result": "4.7 and 2.1 and 2.9 and 5.4 and 2.3 and 1.8 and 2.7"}, {"measurement": "Median in vivo TBR", "setting": "[1]; 1.2 mg/kg, mucosal tumors (HNSCC), interquartile range of 1.4", "result": 2.6}, {"measurement": "Median in vivo CNR", "setting": "[1]; 1.2 mg/kg, mucosal tumors (HNSCC), interquartile range of 17.6", "result": 5.6}, {"measurement": "Patients in whom fluorescence imaging was feasible (patients with viable tumors)", "setting": "[1]; Phase 1, all 4 tumor types", "result": "29 out of 30"}, {"measurement": "Patient tumors showing Compound 1 fluorescence intraoperatively", "setting": "[1]; Phase 1a, BC", "result": "Two of the 7 and 2 of 7"}, {"measurement": "Patient tumors showing Compound 1 fluorescence intraoperatively", "setting": "[1]; Phase 1a, HNSCC", "result": "8 and 8 of 8"}, {"measurement": "CNR and TBR values", "setting": "[1]; Phase 1a, in vivo tumor and postoperative specimen fluorescence", "result": "2-15"}, {"measurement": "Intraoperative detection of intraluminal EC tumors", "setting": "[1]; Phase 1b, 3 EC tumors, extraluminal imaging, 1.2 mg/kg", "result": "not detected"}, {"measurement": "Patient tumors in which Compound 1 fluoresced intraoperatively", "setting": "[1]; Phase 1b, BC, 1.2 mg/kg", "result": "3 of 4"}, {"measurement": "Patient tumors in which Compound 1 fluoresced intraoperatively", "setting": "[1]; Phase 1b, CRC, 1.2 mg/kg", "result": "2 of 3"}, {"measurement": "Patient tumors in which Compound 1 fluoresced intraoperatively", "setting": "[1]; Phase 1b, HNSCC, 1.2 mg/kg", "result": "5 of 5"}, {"measurement": "Patient tumors in which Compound 1 fluoresced intraoperatively", "setting": "[1]; Phase 1b, all tumor types, 1.2 mg/kg", "result": "10/15"}, {"measurement": "Tumors visualized intraoperatively by Compound 1 fluorescence", "setting": "[1]; CRC", "result": "2 of 3"}, {"measurement": "Tumors that could not be visualized intraoperatively", "setting": "[1]; CRC (distant rectal tumor)", "result": "1 of 3"}, {"measurement": "Tumors visualized intraoperatively by Compound 1 fluorescence", "setting": "[1]; HNSCC", "result": 13}, {"measurement": "Tumors that could not be visualized intraoperatively", "setting": "[1]; deeper seated BC", "result": "6 of 11"}, {"measurement": "Tumors that could not be visualized intraoperatively", "setting": "[1]; intraluminal EC", "result": "2 of 3"}, {"measurement": "Tumors visualized intraoperatively by Compound 1 fluorescence", "setting": "[1]; superficially seated BC", "result": "5 of 11"}, {"measurement": "Intraoperative TBR and CNR values", "setting": "[1]; all patients with feasible intraoperative imaging", "result": "high"}, {"measurement": "Fluorescent signals in diseased tissues", "setting": "[2]; 7 dogs, 0.5-2.0 mg/kg, 24 or 72 hr before surgery", "result": "fluorescent signals were observed where expected for diseased tissues"}, {"measurement": "Detection of occult disease", "setting": "[2]; one dog-patient, metastatic popliteal lymph node", "result": "occult disease was identified; also recorded: identification of occult disease"}]}
